In ChEMBL document CHEMBL1152776, “Facile synthesis of diazido-functionalized biaryl compounds as radioisotope-free photoaffinity probes by Suzuki-Miyaura coupling” (Bioorg Med Chem, 2009) one finds Activity data, which are given here for four molecules.

Assay [1] has as its system Muscle tissue. Nature of the assay: Inhibition of physiological calcium release in mouse sarcoplasmic reticular skeletal muscle. Type of assay: functional, tissue-based.
The species entered for assay [2] is Mus musculus. Put plainly: Inhibition of Ca2+-induced calcium release in mouse sarcoplasmic reticular skeletal muscle. Type of assay: functional.
The target in assay [3] is Ryanodine receptor 1 (Homo sapiens) (UniProt P21817). Put plainly: Binding affinity to RyR1 by photolabeling experiment.
Assay [4] relates to Muscle tissue. Nature of the assay: Inhibition of physiological calcium release in mouse sarcoplasmic reticular skeletal muscle at 50 uM. Type of assay: functional, tissue-based.
The species entered for assay [5] is Mus musculus. Put plainly: Inhibition of Ca2+-induced calcium release in mouse sarcoplasmic reticular skeletal muscle at 50 uM. In kind it is functional.
[6] abbreviates: tested as the 125I-labelled form.

Active and inactive are the calls of the source. The rule behind the calls is not given here.

Ryanodine receptor 1 (Homo sapiens), sequence (P21817 whole entry): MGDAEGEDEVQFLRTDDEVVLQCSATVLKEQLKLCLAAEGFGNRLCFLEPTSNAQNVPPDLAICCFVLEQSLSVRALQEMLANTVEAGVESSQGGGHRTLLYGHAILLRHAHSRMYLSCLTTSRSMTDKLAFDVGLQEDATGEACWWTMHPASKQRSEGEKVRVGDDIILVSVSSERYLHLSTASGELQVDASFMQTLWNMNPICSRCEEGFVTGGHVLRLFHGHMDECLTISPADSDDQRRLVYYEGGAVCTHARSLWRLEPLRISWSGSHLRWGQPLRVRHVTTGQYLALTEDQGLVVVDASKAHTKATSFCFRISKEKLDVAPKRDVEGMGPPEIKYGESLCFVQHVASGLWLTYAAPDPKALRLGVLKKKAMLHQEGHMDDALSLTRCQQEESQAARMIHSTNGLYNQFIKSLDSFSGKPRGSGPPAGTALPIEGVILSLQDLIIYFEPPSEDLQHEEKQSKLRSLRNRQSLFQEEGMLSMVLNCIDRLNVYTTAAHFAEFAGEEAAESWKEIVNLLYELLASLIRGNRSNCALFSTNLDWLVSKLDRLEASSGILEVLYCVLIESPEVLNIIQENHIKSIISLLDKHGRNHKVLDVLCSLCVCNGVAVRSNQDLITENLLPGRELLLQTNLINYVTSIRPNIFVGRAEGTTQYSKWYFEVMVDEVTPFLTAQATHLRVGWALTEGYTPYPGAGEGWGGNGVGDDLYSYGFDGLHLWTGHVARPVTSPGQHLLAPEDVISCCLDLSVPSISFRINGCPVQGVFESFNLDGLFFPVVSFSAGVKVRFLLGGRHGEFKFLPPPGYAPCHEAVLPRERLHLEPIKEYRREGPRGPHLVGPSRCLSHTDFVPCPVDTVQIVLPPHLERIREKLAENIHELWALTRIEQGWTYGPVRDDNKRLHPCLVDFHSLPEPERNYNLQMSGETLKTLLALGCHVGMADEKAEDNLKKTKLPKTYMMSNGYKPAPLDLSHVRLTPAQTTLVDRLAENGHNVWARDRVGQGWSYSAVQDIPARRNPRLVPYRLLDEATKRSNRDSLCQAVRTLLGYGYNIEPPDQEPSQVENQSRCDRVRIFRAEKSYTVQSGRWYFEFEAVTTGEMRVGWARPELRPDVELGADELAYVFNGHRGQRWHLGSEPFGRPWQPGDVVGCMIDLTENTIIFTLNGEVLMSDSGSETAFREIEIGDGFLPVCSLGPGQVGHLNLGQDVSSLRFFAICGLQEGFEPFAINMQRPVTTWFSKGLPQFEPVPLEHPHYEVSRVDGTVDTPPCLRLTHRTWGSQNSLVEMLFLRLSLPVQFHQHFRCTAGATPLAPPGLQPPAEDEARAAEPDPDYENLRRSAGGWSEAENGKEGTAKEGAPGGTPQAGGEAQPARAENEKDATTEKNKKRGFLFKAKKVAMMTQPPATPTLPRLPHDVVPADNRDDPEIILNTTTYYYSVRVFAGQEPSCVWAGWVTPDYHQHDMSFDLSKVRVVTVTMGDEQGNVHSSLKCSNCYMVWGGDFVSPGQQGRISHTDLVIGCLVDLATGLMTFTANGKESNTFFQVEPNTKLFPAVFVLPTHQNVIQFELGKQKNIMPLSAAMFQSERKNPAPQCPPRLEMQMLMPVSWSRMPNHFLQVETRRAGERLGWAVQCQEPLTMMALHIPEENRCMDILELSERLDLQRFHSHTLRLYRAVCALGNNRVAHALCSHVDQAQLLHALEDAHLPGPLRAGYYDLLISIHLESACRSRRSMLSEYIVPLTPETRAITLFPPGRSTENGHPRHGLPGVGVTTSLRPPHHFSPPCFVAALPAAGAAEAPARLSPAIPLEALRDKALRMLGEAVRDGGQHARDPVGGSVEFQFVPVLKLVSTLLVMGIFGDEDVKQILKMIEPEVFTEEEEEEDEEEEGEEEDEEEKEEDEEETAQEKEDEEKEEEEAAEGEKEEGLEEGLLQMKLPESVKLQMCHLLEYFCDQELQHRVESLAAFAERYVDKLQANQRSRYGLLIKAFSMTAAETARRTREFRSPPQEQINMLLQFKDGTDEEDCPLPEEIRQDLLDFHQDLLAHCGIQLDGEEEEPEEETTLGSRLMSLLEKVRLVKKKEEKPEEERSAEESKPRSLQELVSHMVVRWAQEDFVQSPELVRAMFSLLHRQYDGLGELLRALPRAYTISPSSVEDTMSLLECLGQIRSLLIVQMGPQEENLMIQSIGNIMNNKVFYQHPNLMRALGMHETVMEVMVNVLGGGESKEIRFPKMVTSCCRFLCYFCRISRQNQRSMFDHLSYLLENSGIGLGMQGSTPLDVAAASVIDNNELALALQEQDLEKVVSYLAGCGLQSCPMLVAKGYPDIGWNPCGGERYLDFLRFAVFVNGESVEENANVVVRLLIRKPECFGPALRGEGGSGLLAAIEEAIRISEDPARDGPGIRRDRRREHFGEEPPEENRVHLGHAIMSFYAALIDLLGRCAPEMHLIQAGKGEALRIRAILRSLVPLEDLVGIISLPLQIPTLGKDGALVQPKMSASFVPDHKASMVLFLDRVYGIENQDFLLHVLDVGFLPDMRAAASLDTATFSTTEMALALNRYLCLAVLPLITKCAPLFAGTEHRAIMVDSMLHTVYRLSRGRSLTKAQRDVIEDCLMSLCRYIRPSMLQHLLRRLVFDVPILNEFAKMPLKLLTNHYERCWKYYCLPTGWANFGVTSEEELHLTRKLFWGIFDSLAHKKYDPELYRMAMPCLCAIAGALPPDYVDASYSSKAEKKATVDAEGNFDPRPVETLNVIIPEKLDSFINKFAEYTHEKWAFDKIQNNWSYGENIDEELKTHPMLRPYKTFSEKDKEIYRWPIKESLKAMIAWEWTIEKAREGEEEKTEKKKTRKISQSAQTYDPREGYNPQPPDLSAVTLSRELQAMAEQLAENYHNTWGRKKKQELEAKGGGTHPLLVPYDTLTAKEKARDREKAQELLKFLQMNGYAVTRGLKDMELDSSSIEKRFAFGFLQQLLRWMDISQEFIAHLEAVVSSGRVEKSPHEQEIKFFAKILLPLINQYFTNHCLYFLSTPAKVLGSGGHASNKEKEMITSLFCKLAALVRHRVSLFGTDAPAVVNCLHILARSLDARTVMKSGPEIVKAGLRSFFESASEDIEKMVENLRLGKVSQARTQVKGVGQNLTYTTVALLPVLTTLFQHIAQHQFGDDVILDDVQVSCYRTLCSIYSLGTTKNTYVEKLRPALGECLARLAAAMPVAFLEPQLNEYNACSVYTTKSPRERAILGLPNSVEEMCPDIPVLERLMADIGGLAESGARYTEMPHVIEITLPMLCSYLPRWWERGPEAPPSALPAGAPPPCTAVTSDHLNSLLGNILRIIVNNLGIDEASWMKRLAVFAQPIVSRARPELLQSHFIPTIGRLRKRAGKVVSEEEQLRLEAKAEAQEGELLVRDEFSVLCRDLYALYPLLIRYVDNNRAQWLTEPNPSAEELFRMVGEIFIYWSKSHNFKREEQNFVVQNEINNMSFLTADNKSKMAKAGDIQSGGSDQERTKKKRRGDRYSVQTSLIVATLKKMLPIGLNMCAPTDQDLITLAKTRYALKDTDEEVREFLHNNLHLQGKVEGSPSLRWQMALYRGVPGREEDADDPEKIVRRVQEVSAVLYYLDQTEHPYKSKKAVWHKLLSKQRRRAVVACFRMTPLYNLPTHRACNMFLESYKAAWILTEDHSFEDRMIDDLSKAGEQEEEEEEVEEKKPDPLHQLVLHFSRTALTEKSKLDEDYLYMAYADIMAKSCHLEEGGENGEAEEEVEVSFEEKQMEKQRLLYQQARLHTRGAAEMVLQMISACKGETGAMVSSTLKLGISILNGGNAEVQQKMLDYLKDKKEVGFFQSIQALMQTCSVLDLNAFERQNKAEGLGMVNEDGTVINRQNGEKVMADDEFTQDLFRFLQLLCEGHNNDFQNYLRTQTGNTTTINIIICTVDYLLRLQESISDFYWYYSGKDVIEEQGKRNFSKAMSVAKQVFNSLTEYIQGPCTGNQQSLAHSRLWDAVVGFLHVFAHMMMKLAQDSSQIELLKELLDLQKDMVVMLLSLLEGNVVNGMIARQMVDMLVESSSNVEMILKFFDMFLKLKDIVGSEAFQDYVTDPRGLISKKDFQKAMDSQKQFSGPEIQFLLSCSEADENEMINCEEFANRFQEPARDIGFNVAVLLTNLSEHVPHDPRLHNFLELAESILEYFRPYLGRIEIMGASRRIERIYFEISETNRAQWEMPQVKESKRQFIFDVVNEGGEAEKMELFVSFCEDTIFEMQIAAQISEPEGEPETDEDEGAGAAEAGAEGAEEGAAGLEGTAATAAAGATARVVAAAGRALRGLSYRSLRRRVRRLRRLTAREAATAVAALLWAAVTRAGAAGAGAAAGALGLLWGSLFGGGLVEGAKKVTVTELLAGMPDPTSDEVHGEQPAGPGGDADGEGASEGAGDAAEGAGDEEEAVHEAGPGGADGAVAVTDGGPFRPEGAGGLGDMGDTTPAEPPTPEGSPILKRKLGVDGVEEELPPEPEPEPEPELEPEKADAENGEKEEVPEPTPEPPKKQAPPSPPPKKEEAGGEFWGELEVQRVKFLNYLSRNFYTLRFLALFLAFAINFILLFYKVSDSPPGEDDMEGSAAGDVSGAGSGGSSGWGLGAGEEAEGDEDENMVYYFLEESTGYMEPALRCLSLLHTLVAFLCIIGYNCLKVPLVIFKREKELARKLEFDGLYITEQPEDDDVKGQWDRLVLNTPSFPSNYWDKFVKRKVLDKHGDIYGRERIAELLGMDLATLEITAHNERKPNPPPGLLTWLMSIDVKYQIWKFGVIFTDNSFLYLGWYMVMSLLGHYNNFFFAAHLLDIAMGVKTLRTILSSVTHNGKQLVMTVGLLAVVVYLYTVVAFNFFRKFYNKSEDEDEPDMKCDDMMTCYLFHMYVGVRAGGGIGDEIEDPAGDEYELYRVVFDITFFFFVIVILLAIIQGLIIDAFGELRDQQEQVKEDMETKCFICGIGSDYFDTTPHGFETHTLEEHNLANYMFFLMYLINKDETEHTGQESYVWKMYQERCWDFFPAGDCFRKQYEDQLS

As for `[N-]=[N+]=Nc1cc(I)cc(CN2C(=O)CN(/N=C/c3ccc(-c4ccc([N+](=O)[O-])cc4)o3)C2=O)c1`, in the assay with Muscle tissue [1] (setting [6]), the result was Active. The result (in the assay listed under Mus musculus [2] (setting [6]); in assay [3] (setting [6])) was inactive.
Turning to `[N-]=[N+]=NCc1cc(N=[N+]=[N-])cc(-c2ccc(/C=N/N3CC(=O)NC3=O)o2)c1`, the outcome with Muscle tissue [1] was Active. Further, the outcome in the assay listed under Mus musculus [2] was inactive.
For `[N-]=[N+]=NCc1cc(CN2C(=O)CN(/N=C/c3ccc(-c4ccc([N+](=O)[O-])cc4)o3)C2=O)cc(N=[N+]=[N-])c1`, in the assay on Muscle tissue [1], the result was Active. Further, the outcome in assay [3] was inactive.
Take `[N-]=[N+]=Nc1ccc(-c2ccc(/C=N/N3CC(=O)NC3=O)o2)cc1`: the result in the assay on Muscle tissue [4] and in the assay listed under Mus musculus [5] was Active.
